The source made the active and inactive calls. No cut-off for these calls is given here.
Experiments:
NCI-H358 = experiment: Antiproliferative activity against human NCI-H358 cells harboring KRAS G12C mutant measured after 72 hrs by CCK-8 assay; format: functional, cell-based; conditions: NCI-H358, 72 h
A549 = experiment: Antiproliferative activity against human A549 cells harboring KRAS G12S mutant measured after 72 hrs by CCK-8 assay; format: functional, cell-based; conditions: A549, 72 h
GTPase KRas = GTPase KRas (Homo sapiens, UniProt P01116, G12C); experiment: Inhibition of KRAS G12C mutant (unknown origin) assessed as inhibition of SOS1-catalyzed nucleotide exchange measured by HTRF assay
GTPase KRas, sequence (P01116 whole entry G12C): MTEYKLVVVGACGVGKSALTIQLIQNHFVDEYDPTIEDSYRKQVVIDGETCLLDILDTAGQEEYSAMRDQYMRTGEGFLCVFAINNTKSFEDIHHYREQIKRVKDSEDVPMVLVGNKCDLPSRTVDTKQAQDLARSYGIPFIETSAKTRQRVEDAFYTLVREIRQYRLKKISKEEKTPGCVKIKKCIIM

NCI-H23 = experiment: Antiproliferative activity against human NCI-H23 cells harboring KRAS G12C mutant measured after 72 hrs by CCK-8 assay; format: functional, cell-based; conditions: NCI-H23, 72 h
[1] = tested on: von Hippel-Lindau disease tumor suppressor/GTPase KRas (Homo sapiens), P01116+P40337 [G12C]; experiment: Protac activity at VHL/KRAS G12C mutant in human NCI-H358 cells assessed as induction of KRAS G12C mutant degradation by measuring downregulation of KRAS G12C protein level at 3 uM measured after 24 hrs by Western blot analysis; format: cell-based
[2] = tested on: von Hippel-Lindau disease tumor suppressor/GTPase KRas (Homo sapiens), P01116+P40337 [G12C]; experiment: Protac activity at VHL/KRAS G12C mutant in human NCI-H358 cells assessed as induction of KRAS G12C mutant degradation by measuring downregulation of KRAS G12C protein level at 3 uM in presence of cycloheximide measured after 24 hrs by Western blot analysis; format: cell-based
[3] = biological target: T1, von Hippel-Lindau disease tumor suppressor/GTPase KRas (Homo sapiens, UniProt P01116+P40337, G12C); experiment: Protac activity at VHL/KRAS G12C mutant in human NCI-H23 cells assessed as induction of KRAS G12C mutant degradation by measuring downregulation of KRAS G12C protein level measured after 24 hrs by Western blot analysis; format: cell-based
T1 sequence (P01116 whole entry G12C, stated change not applied): as the sequence (P01116 whole entry G12C) above
T1 sequence (P40337 whole entry, stated change not applied): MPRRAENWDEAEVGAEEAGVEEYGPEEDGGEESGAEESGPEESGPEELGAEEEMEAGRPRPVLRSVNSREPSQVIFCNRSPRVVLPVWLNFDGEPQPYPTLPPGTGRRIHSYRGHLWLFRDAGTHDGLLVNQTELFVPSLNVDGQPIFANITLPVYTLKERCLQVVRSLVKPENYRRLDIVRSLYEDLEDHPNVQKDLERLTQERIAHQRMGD

[4] = tested on: von Hippel-Lindau disease tumor suppressor/GTPase KRas (Homo sapiens), P01116+P40337 [G12C]; experiment: Protac activity at VHL/KRAS G12C mutant in human NCI-H358 cells assessed as induction of KRAS G12C mutant degradation by measuring downregulation of phospho-ERK protein level at 3 uM measured after 24 hrs by Western blot analysis; format: cell-based
[5] = tested on: von Hippel-Lindau disease tumor suppressor/GTPase KRas (Homo sapiens), P01116+P40337 [G12C]; experiment: Protac activity at VHL/KRAS G12C mutant in human NCI-H23 cells assessed as induction of KRAS G12C mutant degradation by measuring downregulation of KRAS G12C protein level at 3 uM measured after 24 hrs by Western blot analysis; format: cell-based
[6] = tested on: von Hippel-Lindau disease tumor suppressor/GTPase KRas (Homo sapiens), P01116+P40337 [G12C]; experiment: Protac activity at VHL/KRAS G12C mutant in human NCI-H23 cells assessed as induction of KRAS G12C mutant degradation by measuring downregulation of phospho-ERK protein level at 3 uM measured after 24 hrs by Western blot analysis; format: cell-based
[7] = biological target: T1, von Hippel-Lindau disease tumor suppressor/GTPase KRas; experiment: Protac activity at VHL/KRAS G12C mutant in human NCI-H23 cells assessed as induction of KRAS G12C mutant degradation by measuring downregulation of phospho-ERK protein level measured after 24 hrs by Western blot analysis; format: cell-based
[8] = biological target: T1, von Hippel-Lindau disease tumor suppressor/GTPase KRas; experiment: Protac activity at VHL/KRAS G12C mutant in human NCI-H358 cells assessed as induction of KRAS G12C mutant degradation by measuring downregulation of phospho-ERK protein level measured after 24 hrs by Western blot analysis; format: cell-based
[9] = biological target: T1, von Hippel-Lindau disease tumor suppressor/GTPase KRas; experiment: Protac activity at VHL/KRAS G12C mutant in human NCI-H358 cells assessed as induction of KRAS G12C mutant degradation by measuring downregulation of KRAS G12C protein level measured after 24 hrs by Western blot analysis; format: cell-based
[10] = tested on: GTPase KRas (Homo sapiens), P01116 [G12C]; experiment: Reversible covalent binding affinity to KRAS G12C mutant (unknown origin) incubated for 2 hrs and measured by MALDI-TOF-MS analysis
GTPase KRas (Homo sapiens), P01116 [G12C], sequence (P01116 whole entry G12C): as the sequence (P01116 whole entry G12C) above

Compound | IC50 (NCI-H358) [µM] | IC50 (A549) [µM] | IC50 (GTPase KRas) [µM] | IC50 (NCI-H23) [µM] | Activity [1] | Activity [2] | DC50 [3] [µM] | Activity [4] | Activity [5] | Activity [6] | DC50 [7] [µM] | DC50 [8] [µM] | DC50 [9] [µM] | Activity [10]
CC(C)C=C(C#N)C(=O)N1CCN(c2nc(OC[C@@H]3CCCN3C)nc3c2CCN(c2cccc4cccc(Cl)c24)C3)C[C@@H]1CC#N | 13.7 | 50 | 0.284 | 3.15 | – | – | – | – | – | – | – | – | – | –
CC=C(C#N)C(=O)N1CCN(c2nc(OC[C@@H]3CCCN3C)nc3c2CCN(c2cccc4cccc(Cl)c24)C3)C[C@@H]1CC#N | 5.13 | 8.2 | 0.0963 | 9.55 | – | – | – | – | – | – | – | – | – | –
CCC=C(C#N)C(=O)N1CCN(c2nc(OC[C@@H]3CCCN3C)nc3c2CCN(c2cccc4cccc(Cl)c24)C3)C[C@@H]1CC#N | 13.4 | 25.3 | 0.271 | 7.4 | – | – | – | – | – | – | – | – | – | –
CN1CCC[C@H]1COc1nc2c(c(N3CCN(C(=O)C(C#N)=CC(C)(C)C)[C@@H](CC#N)C3)n1)CCN(c1cccc3cccc(Cl)c13)C2 | 0.796 | 16.1 | 0.64 | 6.33 | – | – | – | – | – | – | – | – | – | –
Cc1ncsc1-c1ccc(CNC(=O)[C@@H]2C[C@@H](O)CN2C(=O)[C@@H](NC(=O)CCOCCCN2CCC[C@H]2COc2nc3c(c(N4CCN(C(=O)/C(C#N)=C/C5CC5)[C@@H](CC#N)C4)n2)CCN(c2cccc4cccc(Cl)c24)C3)C(C)(C)C)cc1 | 0.154 | – | – | 0.244 | Active | Active | 4.53 | Active | Active | Active | 1.44 | 1.68 | 3.61 | –
CN1CCC[C@H]1COc1nc2c(c(N3CCN(C(=O)C(C#N)=CC4CC4)[C@@H](CC#N)C3)n1)CCN(c1cccc3cccc(Cl)c13)C2 | 4.7 | 13.3 | 0.0254 | 5.25 | – | – | – | – | – | – | – | – | – | Active
C=CC(=O)N1CCN(c2nc(=O)n(-c3c(C)ccnc3C(C)C)c3nc(-c4c(O)cccc4F)c(F)cc23)[C@@H](C)C1 [SOTORASIB] | 0.0084 | 50 | – | 0.112 | – | – | – | – | – | – | – | – | – | –

Source: ChEMBL document CHEMBL5154696, “Efficient targeted oncogenic KRASG12C degradation via first reversible-covalent PROTAC” (Eur J Med Chem, 2022)
